Laboratory results as given in patent US20210298297A1, “MOSQUITO ATTRACTANTS” (Wageningen Universiteit, priority 2018, published 2021).

Assays:
Anopheles coluzzii = experiment: Dual-port olfactometer preference test of IAC and IAC blends; assay type: in vivo; conditions: for behavioural response on supplementing parasite-free odour with the IAC alone: individual IAC, at least two concentrations, with parasite-free odour (socks) vs parasite-free odour alone
Method: Six IAC (heptanal, octanal, nonanal, (E)-2-octenal, (E)-2-decenal and 2-octanone) were tested in a background of odour from the worn nylon socks of twelve parasite-free children (18S qPCR confirmed). Each sock pair was cut into twelve strips after removing the foot part, then 12 bundles were made, each containing a strip from each individual. Bundles were stored at −20° C. until, and between, experiments. IAC were positioned downwind and separated from sock bundles by a metal grid, ensuring no contact. Parasite-free odour (bundles) was tested with or without individual IAC (in 10 μL hexane on filter paper) and against the same but with hexane alone.
Next, we verified whether the IAC could improve a mosquito lure for monitoring or mass trapping of Anopheles. Heptanal, the most promising candidate from the above experiment, was tested as well as two blends: Plas 5 contained the IAC that were associated with parasitological positivity (nonanal, heptanal, octanal, (E)-2-decenal and (E)-2-octenal), and Plas 6 additionally contained the gametocyte-associated 2-octanone (FIG. 3). Each of Plas 5 and Plas 6 were made up in hexane by weighing the appropriate amounts of constituent compounds into a volumetric flask. […] Plas 5 and Plas 6 were tested with the synthetic lure MB5^36 at four concentrations, each decreasing by a factor of 10 from the 100% concentration by serial dilution.
MB5 was presented on nylon strips as described in Menger et al. (2014)^36 (except the five compounds were incubated onto a single 5×26.5 cm nylon strip instead of five narrower strips). 10 μl of the Plas5 or Plas6 blend at 100% or serial dilution was pipetted onto a filter paper and added in the same olfactometer trap.
A triple chamber dual-port olfactometer^59 was used to test the preference of 30 five- to eight-day-old female, non blood-fed Anopheles coluzzii (Suokoko strain^21, rearing procedures as published previously^21) for parasite free odour or MB5, supplemented with IAC or IAC blends, against background odour alone (parasite-free odour or MB5). Mosquitoes were maintained in a release cage prior to testing (for 16-22 hours). Experiments took place during the last four hours of the scotophase under near-dark conditions (<1 lux). Mosquitoes were allowed to fly for 15 minutes, then those that had entered the traps with test/control odours were counted. Each IAC/concentration combination was tested eight-nine times on different days, and each Plas concentration 10-11 times on different days, rotating treatments between the left and right port of the olfactometer. Climatic data (R.H., temperature and air pressure) were recorded in the flight chambers and in the surrounding room.
Generalized linear models (GLMs) were used to test the effect of odours (individual IAC/heptanal/Plas blends) on relative attractiveness (the proportion of mosquitoes selecting the test odour). GLMs were run as described above (statistical analysis, attractiveness of ‘infected odour’ (socks) by cage assays), testing parameters associated with the set-up as additional factors or covariates in the model, and retaining when significant (P<0.05, F-test). Sets of compounds were run in separate models. SPSS® was used for the analyses.

[1] = test system: Anopheles coluzzii antennae; experiment: Gas chromatography-electroantennography (GC-EAG) of pooled odour samples; conditions: analytes in pooled foot odour extracts; >3 responses of 6/7 repetitions = EAG-active
Method: Porapak filters were eluted using re-distilled diethyl ether (750 μL), and, to approximate an “average” odour per category, extracts were pooled according to the individual's parasitological status: (1) Plasmodium infection, no gametocytes (2) high-density P. falciparum gametocytes (3) parasite-free individuals, (4) Plasmodium infection, sub-microscopic P. falciparum gametocytes. Aliquots (400 μL) of extracts were mixed, then concentrated (to 60 μL) under a stream of nitrogen (charcoal-filtered). Glassware, charcoal filters and PTFE tubing were cleaned as before.
GC-EAG was conducted during the scotophase, using four- to eight- day-old, unfed female Anopheles coluzzii (N′gousso strain^56). Adults were maintained at 70% RH, with a 12 h light/dark cycle (scotophase 09:00-21:00) and access to 50% glucose solution. The order of testing blends was determined by a 5×5 Latin square (including control blend). The mosquito head was dissected, and the palps, proboscis, and half of the terminal (13th) antennal flagellomere cut off. The indifferent electrode was inserted into the back of the head and the antennal tips guided into the recording electrode to complete the circuit (FIG. 3). Electrodes were hand-pulled glass tips inserted over silver wire (diameter 0.37 mm; Harvard Apparatus, Edenbridge, UK) and filled with Ringers' solution^15. […] The eluate was split to the FID detector and EAG interface at a ratio of 1:1. At the EAG interface, the eluate passed from the heated splitter column to a stream of charcoal filtered, humidified air (flow rate 400 mL/min). This airflow was directed over the antenna at a distance of 5 mm. The signal was amplified ×10,000 by the Intelligent Data Acquisition Controller-4, and signals were analysed using EAD 2000 software (both Syntech®, Hilversum, The Netherlands). Responses were signified by a depolarisation of sufficient amplitude. Peaks that elicited responses in more than 3, of the 6/7 total repetitions, were considered to be EAG-active.

Row | Compound | behavioural response on supplementing parasite-free odour with the IAC alone (Anopheles coluzzii) | proportion of mosquitoes selecting the test odour (GLM, 95 CI) (Anopheles coluzzii; 10 μL heptanal at 10^−8 g/mL added to parasite-free odour (socks) vs parasite-free odour alone) | effect on attractiveness of parasite-free odour (Anopheles coluzzii; heptanal at 10^−7 g/mL added to parasite-free odour vs parasite-free odour alone) | attractiveness of MB5 supplemented with the compound relative to control MB5 (Anopheles coluzzii; three concentrations, data not shown) | antennal (EAG) response [1]
1 | CCCCCCC(C)=O [2-octanone] | did not induce altered behavioural responses |  |  |  | 
2 | CCCCCCC/C=C/C=O [(E)-2-decenal] | did not induce altered behavioural responses |  |  |  | 
3 | CCCCC/C=C/C=O [(E)-2-octenal] | did not induce altered behavioural responses |  |  |  | 
4 | CCCCCCC=O [heptanal] |  | 0.60-0.84 | no effect | equally attractive | elicit antennal response
5 | CCCCCCCCC=O [nonanal] | did not induce altered behavioural responses |  |  |  | elicit antennal response
6 | CCCCCCCC=O [octanal] | did not induce altered behavioural responses |  |  |  | elicit antennal response
